From ChEMBL document CHEMBL5346973 (J Med Chem, 2023)
Where a SMILES comes first, the peptide text is derived from it.

Columns and labels:
[1] = target: Neuronal acetylcholine receptor subunit alpha-7 (Rattus norvegicus, UniProt Q05941); assay: Antagonist activity at rat alpha7 nACh receptor expressed in Xenopus oocyte assessed as inhibition of acetylcholine-induced response at -70 mV holding potential by voltage-clamp based electrophysiological assay; type: cell-based
[2] = target: Nicotinic acetylcholine receptor alpha9/alpha10 (Rattus norvegicus, UniProt P43144+Q9JLB5); assay: Antagonist activity at rat alpha9alpha10 nACh receptor expressed in Xenopus oocyte assessed as inhibition of acetylcholine-induced response at -70 mV holding potential by voltage-clamp based electrophysiological assay; type: cell-based
Sequence of Nicotinic acetylcholine receptor alpha9/alpha10 (P43144 whole entry): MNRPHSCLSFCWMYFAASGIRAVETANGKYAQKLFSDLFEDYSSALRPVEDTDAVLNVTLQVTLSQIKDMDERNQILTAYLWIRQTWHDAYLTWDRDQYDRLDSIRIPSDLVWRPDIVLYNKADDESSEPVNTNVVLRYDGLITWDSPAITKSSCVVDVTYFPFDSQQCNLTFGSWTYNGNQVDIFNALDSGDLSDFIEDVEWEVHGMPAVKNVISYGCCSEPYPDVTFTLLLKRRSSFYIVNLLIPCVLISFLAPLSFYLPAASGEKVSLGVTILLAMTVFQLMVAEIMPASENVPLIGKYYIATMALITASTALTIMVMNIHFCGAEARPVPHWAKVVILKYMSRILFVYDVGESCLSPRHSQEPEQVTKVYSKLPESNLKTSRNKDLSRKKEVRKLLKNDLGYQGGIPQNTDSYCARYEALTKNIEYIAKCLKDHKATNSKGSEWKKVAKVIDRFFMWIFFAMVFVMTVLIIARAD
Sequence of Nicotinic acetylcholine receptor alpha9/alpha10 (Q9JLB5 whole entry): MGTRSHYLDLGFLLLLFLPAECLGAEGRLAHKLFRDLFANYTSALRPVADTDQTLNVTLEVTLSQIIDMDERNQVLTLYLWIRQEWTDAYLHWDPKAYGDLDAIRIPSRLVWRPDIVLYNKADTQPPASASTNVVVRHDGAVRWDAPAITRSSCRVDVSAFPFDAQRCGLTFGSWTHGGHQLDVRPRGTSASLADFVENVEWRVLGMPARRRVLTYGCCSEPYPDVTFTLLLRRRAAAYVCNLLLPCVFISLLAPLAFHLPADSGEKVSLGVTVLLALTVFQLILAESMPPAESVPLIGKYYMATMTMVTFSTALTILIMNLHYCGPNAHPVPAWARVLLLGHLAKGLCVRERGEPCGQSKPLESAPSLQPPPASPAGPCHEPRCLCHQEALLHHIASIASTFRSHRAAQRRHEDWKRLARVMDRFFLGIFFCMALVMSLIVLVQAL

Sequence of Neuronal acetylcholine receptor subunit alpha-7 (Q05941 whole entry): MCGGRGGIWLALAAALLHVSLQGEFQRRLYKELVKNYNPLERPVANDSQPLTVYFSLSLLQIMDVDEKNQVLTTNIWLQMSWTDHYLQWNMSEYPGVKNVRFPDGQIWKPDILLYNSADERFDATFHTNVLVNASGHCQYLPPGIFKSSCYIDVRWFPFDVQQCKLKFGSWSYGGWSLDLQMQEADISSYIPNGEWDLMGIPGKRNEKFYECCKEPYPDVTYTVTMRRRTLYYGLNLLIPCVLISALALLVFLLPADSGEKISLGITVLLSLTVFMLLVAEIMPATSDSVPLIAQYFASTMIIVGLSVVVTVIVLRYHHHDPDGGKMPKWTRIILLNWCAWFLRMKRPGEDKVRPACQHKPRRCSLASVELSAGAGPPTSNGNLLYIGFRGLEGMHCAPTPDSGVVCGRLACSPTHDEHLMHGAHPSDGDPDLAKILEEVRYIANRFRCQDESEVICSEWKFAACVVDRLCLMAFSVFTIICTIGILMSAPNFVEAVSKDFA

SMILES	IC50 [1]	IC50 [2]
CC[C@H](C)[C@@H]1NC(=O)[C@H](CCCNC(=N)N)NC(=O)[C@H](CCCNC(=N)N)NC(=O)[C@@H]2CSSC[C@H](NC(=O)[C@H](Cc3ccc(O)cc3)NC(=O)[C@H](C)NC(=O)CNC(=O)[C@H](CO)NC(=O)[C@H](CO)NC(=O)[C@H](CCCNC(=N)N)NC(=O)[C@@H](NC(=O)[C@@H](N)[C@@H](C)O)CSSC[C@@H](C(=O)N[C@H](C(=O)O)C(C)C)NC(=O)[C@H](C)NC(=O)[C@H](CC(=O)O)NC(=O)[C@H]([C@@H](C)O)NC1=O)C(=O)N[C@@H](CCCNC(=N)N)C(=O)N[C@@H](CO)C(=O)N1CCC[C@H]1C(=O)N[C@@H](Cc1ccc(O)cc1)C(=O)N[C@@H](CC(=O)O)C(=O)N[C@@H](CCCNC(=N)N)C(=O)N[C@@H](CCCNC(=N)N)C(=O)N[C@@H](CCCNC(=N)N)C(=O)N[C@@H](CCCNC(=N)N)C(=O)N[C@@H](Cc1ccc(O)cc1)C(=O)N2 (HELM PEPTIDE1{T.C.R.S.S.G.A.Y.C.R.S.P.Y.D.R.R.R.R.Y.C.R.R.I.T.D.A.C.V}$PEPTIDE1,PEPTIDE1,2:R3-27:R3|PEPTIDE1,PEPTIDE1,9:R3-20:R3$$$V2.0)	> 10000 nM	48 nM
CC[C@H](C)[C@@H]1NC(=O)[C@H](CCCNC(=N)N)NC(=O)[C@H](CCCNC(=N)N)NC(=O)[C@@H](NC(=O)[C@H](Cc2ccc(O)cc2)NC(=O)[C@H](CCCNC(=N)N)NC(=O)[C@H](CCCNC(=N)N)NC(=O)[C@H](CCCNC(=N)N)NC(=O)[C@H](CCCNC(=N)N)NC(=O)[C@H](CC(=O)O)NC(=O)[C@H](Cc2ccc(O)cc2)NC(=O)[C@@H]2CCCN2C(=O)[C@H](CO)NC(=O)[C@H](CCCNC(=N)N)NC(=O)[C@@H]2CSSC[C@H](NC(=O)[C@@H](N)[C@@H](C)O)C(=O)N[C@@H](CCCNC(=N)N)C(=O)N[C@@H](CO)C(=O)N[C@@H](CO)C(=O)NCC(=O)N[C@@H](CCCNC(=N)N)C(=O)N[C@@H](Cc3ccc(O)cc3)C(=O)N2)CSSC[C@@H](C(=O)N[C@H](C(=O)O)C(C)C)NC(=O)[C@H](C)NC(=O)[C@H](CC(=O)O)NC(=O)[C@H](C)NC1=O	650 nM	21 nM
CC[C@H](C)[C@@H]1NC(=O)[C@H](CCCNC(=N)N)NC(=O)[C@H](C)NC(=O)[C@@H]2CSSC[C@H](NC(=O)[C@H](Cc3ccc(O)cc3)NC(=O)[C@H](CCCNC(=N)N)NC(=O)CNC(=O)[C@H](CO)NC(=O)[C@H](CO)NC(=O)[C@H](CCCNC(=N)N)NC(=O)[C@@H](NC(=O)[C@@H](N)[C@@H](C)O)CSSC[C@@H](C(=O)N[C@H](C(=O)O)C(C)C)NC(=O)[C@H](C)NC(=O)[C@H](CC(=O)O)NC(=O)[C@H]([C@@H](C)O)NC1=O)C(=O)N[C@@H](CCCNC(=N)N)C(=O)N[C@@H](CO)C(=O)N1CCC[C@H]1C(=O)N[C@@H](Cc1ccc(O)cc1)C(=O)N[C@@H](CC(=O)O)C(=O)N[C@@H](CCCNC(=N)N)C(=O)N[C@@H](CCCNC(=N)N)C(=O)N[C@@H](CCCNC(=N)N)C(=O)N[C@@H](CCCNC(=N)N)C(=O)N[C@@H](Cc1ccc(O)cc1)C(=O)N2	> 10000 nM	37 nM
CC[C@H](C)[C@@H]1NC(=O)[C@H](CCCNC(=N)N)NC(=O)[C@H](CCCNC(=N)N)NC(=O)[C@@H](NC(=O)[C@H](Cc2ccc(O)cc2)NC(=O)[C@H](CCCNC(=N)N)NC(=O)[C@H](CCCNC(=N)N)NC(=O)[C@H](CCCNC(=N)N)NC(=O)[C@H](CCCNC(=N)N)NC(=O)[C@H](CC(=O)O)NC(=O)[C@H](Cc2ccc(O)cc2)NC(=O)[C@@H]2CCCN2C(=O)[C@@H](CO)NC(=O)[C@H](C)NC(=O)[C@@H]2CSSC[C@H](NC(=O)[C@@H](N)[C@@H](C)O)C(=O)N[C@@H](CCCNC(=N)N)C(=O)N[C@@H](CO)C(=O)N[C@@H](CO)C(=O)NCC(=O)N[C@@H](CCCNC(=N)N)C(=O)N[C@@H](Cc3ccc(O)cc3)C(=O)N2)CSSC[C@@H](C(=O)N[C@H](C(=O)O)C(C)C)NC(=O)[C@H](C)NC(=O)[C@H](CC(=O)O)NC(=O)[C@H]([C@@H](C)O)NC1=O	1910 nM	71 nM
